Laboratory results published in publication PMC4303209, “A novel phosphatidylinositol 3-kinase (PI3K) inhibitor directs a potent FOXO-dependent, p53-independent cell cycle arrest phenotype characterized by the differential induction of a subset of FOXO-regulated genes” (Breast Cancer Research : BCR, 2014).

System: MCF-7 breast cancer cells
Assay: Microarray gene expression analysis (Agilent whole human genome 4 x 44K; compound vs DMSO, LIMMA log2 fold change)
Assay type: cell-based

## Oc1cccc(-c2nc(N3CCOCC3)c3oc4ncccc4c3n2)c1 [PI-103]
Gene SENP2 (Gene 59343), cell cycle genes
  log2FC SENP2: -0.06
Gene SERINC3 (10955), apoptosis genes
  SERINC3 log2FC: 0.115
Gene SERPINE1 (5054), apoptosis genes
  SERPINE1 log2FC: -0.018
Gene SESN1 (Gene 27244), cell cycle genes
  log2FC: -0.06
Gene SHF (90525), apoptosis genes
  SHF log2FC: 0.016
Gene SKIL (6498), apoptosis genes
  SKIL log2FC: 0.039
Gene SKIL (Gene 6498), cell cycle genes
  log2FC SKIL: 0.04
Gene SLBP (Gene 7884), cell cycle genes
  log2FC: 0.11
Gene SLC25A6 (293), apoptosis genes
  SLC25A6 log2FC: -0.018
Gene SLC26A8 (Gene 116369), cell cycle genes
  log2FC SLC26A8: -0.065
Gene SLC40A1 (30061), apoptosis genes
  SLC40A1 log2FC: -0.00212
Gene SMAD1 (4086), apoptosis genes
  SMAD1 log2FC: -0.215
Gene SMNDC1 (10285), apoptosis genes
  SMNDC1 log2FC: -0.319
Gene SOD1 (6647), apoptosis genes
  SOD1 log2FC: 0.105
Gene SOS1 (6654), apoptosis genes
  SOS1 log2FC: 0.010
Gene SOX8 (30812), apoptosis genes
  SOX8 log2FC: -0.456
Gene SPO11 (Gene 23626), cell cycle genes
  log2FC SPO11: 0.0237
Gene SPTAN1 (6709), apoptosis genes
  SPTAN1 log2FC: 0.362
Gene SRC (Gene 6714), cell cycle genes
  log2FC: -0.35
Gene STAG1 (Gene 10274), cell cycle genes
  log2FC: 0.32
Gene STK3 (6788), apoptosis genes
  STK3 log2FC: 0.109
Gene SULF1 (23213), apoptosis genes
  SULF1 log2FC: -0.171
Gene SUPT5H (Gene 6829), cell cycle genes
  log2FC: 0.00774
Gene SUV39H2 (Gene 79723), cell cycle genes
  log2FC: -0.56
Gene SYCP2 (10388), apoptosis genes
  SYCP2 log2FC: 0.019
Gene SYCP2 (Gene 10388), cell cycle genes
  log2FC SYCP2: 0.02
Gene SYCP3 (Gene 50511), cell cycle genes
  log2FC SYCP3: -0.03
Gene TAF2 (Gene 6873), cell cycle genes
  log2FC: 0.21
Gene TAF6 (Gene 6878), cell cycle genes
  log2FC TAF6: 0.22
Gene TAOK2 (Gene 9344), cell cycle genes
  log2FC: -0.25
Gene TEK (7010), apoptosis genes
  TEK log2FC: -0.024
Gene TEX14 (Gene 56155), cell cycle genes
  log2FC: 0.17
Gene TEX15 (Gene 56154), cell cycle genes
  log2FC: 0.23
Gene TFAP2D (83741), apoptosis genes
  TFAP2D log2FC: 0.021
Gene TGFA (Gene 7039), cell cycle genes
  log2FC: -0.53
Gene TGFB2 (7042), apoptosis genes
  TGFB2 log2FC: -0.026
Gene TGFB2 (Gene 7042), cell cycle genes
  log2FC TGFB2: -0.0258
Gene THEM4 (117145), apoptosis genes
  THEM4 log2FC: -0.280
Gene THOC5 (Gene 8563), cell cycle genes
  log2FC THOC5: 0.0165
Gene TMBIM4 (51643), apoptosis genes
  TMBIM4 log2FC: -0.154
Gene TMEM67 (Gene 91147), cell cycle genes
  log2FC: 0.17
Gene TMEM102 (284114), apoptosis genes
  TMEM102 log2FC: 0.338
Gene TNFRSF1B (7133), apoptosis genes
  TNFRSF1B log2FC: -0.040
Gene TNFRSF8 (943), apoptosis genes
  TNFRSF8 log2FC: 0.099
Gene TNFRSF10C (8794), apoptosis genes
  TNFRSF10C log2FC: 0.011
Gene TNFSF8 (944), apoptosis genes
  TNFSF8 log2FC: -0.011
Gene TNFSF9 (8744), apoptosis genes
  TNFSF9 log2FC: 0.192
Gene TNFSF10 (8743), apoptosis genes
  TNFSF10 log2FC: 0.00148
Gene TNFSF12 (8742), apoptosis genes
  TNFSF12 log2FC: 0.353
Gene TNFSF14 (8740), apoptosis genes
  TNFSF14 log2FC: 0.027
Gene TNFSF15 (9966), apoptosis genes
  TNFSF15 log2FC: 0.054
Gene TNFSF18 (8995), apoptosis genes
  TNFSF18 log2FC: 0.071
Gene TP73 (Gene 7161), cell cycle genes
  log2FC: -0.25
Gene TPD52L1 (Gene 7164), cell cycle genes
  log2FC: 0.15
Gene TPX2 (22974), apoptosis genes
  TPX2 log2FC: -0.00173
Gene TRAF2 (7186), apoptosis genes
  TRAF2 log2FC: -0.347
Gene TRAF3IP2 (10758), apoptosis genes
  TRAF3IP2 log2FC: -0.037
Gene TRIP13 (Gene 9319), cell cycle genes
  log2FC TRIP13: -0.38
Gene TUBGCP6 (Gene 85378), cell cycle genes
  log2FC: -0.19
Gene TXNDC5 (81567), apoptosis genes
  TXNDC5 log2FC: -0.039
Gene TYMS (Gene 7298), cell cycle genes
  log2FC TYMS: -0.08
Gene UBD (10537), apoptosis genes
  UBD log2FC: -0.037
Gene UBE2V2 (7336), apoptosis genes
  UBE2V2 log2FC: -0.365
Gene UNC13B (10497), apoptosis genes
  UNC13B log2FC: 0.046
Gene VDAC2 (7417), apoptosis genes
  VDAC2 log2FC: -0.094
Gene VIM (7431), apoptosis genes
  VIM log2FC: 0.122
Gene VIP (7432), apoptosis genes
  VIP log2FC: -0.302
Gene VNN1 (8876), apoptosis genes
  VNN1 log2FC: -0.010
Gene VRK1 (Gene 7443), cell cycle genes
  log2FC: 0.16
Gene WNK3 (65267), apoptosis genes
  WNK3 log2FC: -0.015
Gene WTAP (Gene 9589), cell cycle genes
  log2FC: -0.47
Gene YY1AP1 (Gene 55249), cell cycle genes
  log2FC: 0.31
Gene ZBTB16 (7704), apoptosis genes
  ZBTB16 log2FC: -0.00549
Gene ZC3H12D (Gene 85313), cell cycle genes
  log2FC ZC3H12D: -0.0743
Gene ZC3HC1 (Gene 51530), cell cycle genes
  log2FC: 0.16
Gene ZNF205 (7755), apoptosis genes
  ZNF205 log2FC: -0.247
Gene ZNF443 (10224), apoptosis genes
  ZNF443 log2FC: -0.204
Gene ZNF503 (Gene 84858), cell cycle genes
  log2FC: -0.12
Gene ZNF622 (90441), apoptosis genes
  ZNF622 log2FC: -0.120
